Results reported in ChEMBL document CHEMBL3137356, “MMV Box Cryptosporidium parvum screening set”.

Tested on: Cryptosporidium parvum
Experiment: MMV: Cryptosporidium parvum oocysts (Iowa Strain) were prepared for use by treatment with 10 mM HCl (37 degrees C, 10 min) followed by 2 mM sodium taurocholate in phosphate-buffered saline (PBS) with Ca2+ and Mg2+ (16 degrees C, 10 min) in order to stimulate excystation. The high-throughput screen was carried out by inoculating >90% confluent human ileocecal adenocarcinoma (HCT-8) cells (ATCC) with ~5.5 x 10^3 primed oocysts per well. Experimental compounds or DMSO (vehicle) were added three hours after infection, and cells were incubated for 48 hours.
Type: functional

SMILES	Inhibition
Cc1ccc(-c2cc3nc4c(c(O)n3n2)CCCC4)cc1	2.31%
O=C(O)C(=O)O.Oc1ccccc1CN1CCN(C(c2ccccc2)c2ccccc2)CC1	-3.109%
COc1cccc(Nc2nc(N)c3ccccc3n2)c1.Cl	27.99%
CCOc1ccc2nc(C)cc(Nc3ccc(Br)cc3)c2c1	-4.208%
O=C(Nc1ccc(CN2CCOCC2)cc1)c1ccc(-c2cc(Cl)ccc2Cl)o1	9.568%
CC(Oc1ccc(NC(=O)c2cccs2)cc1)C(=O)c1ccc(Cl)cc1 (centres undefined)	19.15%
FC(F)(F)c1ccc(Nc2nnnc3ccccc23)cc1	-4.73%
O=C(Nc1ccc(-c2nc3cc(NC(=O)c4ccc(Cl)cc4)ccc3[nH]2)cc1)c1ccc(Cl)cc1	-6.932%
O=C(NC1CCCCC1)C(c1cccs1)N(CCc1ccccc1)C(=O)c1ccco1 (centres undefined)	-24.45%
CC1(c2ccccc2)Nc2ccccc2-c2nc3ccccc3n21 (centres undefined)	30.85%
O=C(NC1CCN(Cc2ccccc2)CC1)c1cc2nc(-c3ccc(Cl)s3)cc(C(F)(F)F)n2n1	-21.67%
CCOc1ccccc1NC(=O)CN1CCN(C(=O)c2ccco2)CC1	-43.69%
O=C(NC1CCN(Cc2ccccc2)CC1)c1cc(C(=O)NC2CCN(Cc3ccccc3)CC2)cc(C(=O)NC2CCN(Cc3ccccc3)CC2)c1	0.9409%
CCOC(=O)c1c[nH]c2c(CC)cccc2c1=O	0.8782%
COc1ccc2c(c1)OC(O)(C(F)(F)C(F)(F)F)CC2=O (centres undefined)	33.72%
Cc1cc(C=C2SC(=Nc3ccccc3)N(C3CCCC3)C2=O)c(C)n1-c1ccc(Cl)cc1	0.2141%
Cc1sc2ncnc(Sc3nc4ccccc4[nH]3)c2c1C	20.44%
COc1cccc(C2(C)Nc3ccccc3-c3nc4ccccc4n32)c1 (centres undefined)	-28.25%
Oc1ccc(Cl)cc1CNc1nc2ccccc2[nH]1	-2.947%
COc1cccc(O)c1CN1CCC2(CCCN(Cc3ccc(F)cc3)C2)C1 (centres undefined)	46%
CCN(CC)CCCNc1ccnc2cc3ccccc3cc12	-47.31%
CCN1CCN(c2c(C(=O)c3ccccc3)cnc3cc(OC)c(OC)cc23)CC1	-1.231%
CN(N=O)C1=C(NC2CCCCC2)C(=O)c2ccccc2C1=O	-6.459%
COc1ccc(Br)cc1C1Nc2ccc3ccccc3c2C2=C1C(=O)CC(c1ccccc1)C2 (centres undefined)	-67.54%
COc1ccc(NC(=O)C2c3ccccc3C(=O)N(CC(C)C)C2c2cccs2)cc1Cl (centres undefined)	-10.67%
COc1ccc(Nc2nc(N/N=C/c3ccc(O)cc3)nc(Nc3ccc([N+](=O)[O-])cc3)n2)cc1	-49.8%

SMILES	Inhibition
CCOc1ccc(Nc2c3ccccc3nc3ccccc23)cc1.Cl	26.95%
COc1ccc(C(=O)C2CC2c2ccc(Cl)cc2)cc1 (centres undefined)	-36.26%
CCCCCC(=O)N1c2ccccc2N=C2CC(c3ccc(OC)c(OC)c3)CC(O)=C2C1c1ccc(C(F)(F)F)cc1 (centres undefined)	-9.957%
COc1cc2c(cc1OC)C1=NNC(=O)C1=NC(C)(C)C2	-25.43%
Cc1ccc2cc3c(N)c4c(C)ccc(C)c4nc3nc2c1	-22.09%
CCc1ccc(Nc2cc(C)c3ccc(O)cc3n2)cc1.Cl	-30.31%
FC(F)(F)c1cccc(Nc2nc3ccccc3nc2Nc2cccc(C(F)(F)F)c2)c1	-14.38%
c1ccc(CNc2nc(Nc3ccccc3)nc3ccccc23)cc1	87.13%
CC(NCc1ccccc1)c1cc(Cl)ccc1O (centres undefined)	-51.25%
CCOc1cc(CNC(C)C(O)c2ccccc2)cc(Cl)c1OCC (centres undefined)	29.95%
CCOC(=O)C1(Cc2ccccc2)CCN(Cc2cccc(OC)c2O)CC1	-29.57%
CCN1CCCC1CNc1[nH]cnc2c3cc(Cl)ccc3nc1-2 (centres undefined)	-14.57%
COc1ccc(CCNC(=O)c2cc(S(=O)(=O)N3CC(C)CC(C)C3)ccc2Sc2ccc(F)cc2)cc1OC (centres undefined)	16.29%
Oc1c(C(Nc2ccccn2)c2cccc(Oc3ccccc3)c2)ccc2cccnc12 (centres undefined)	73.93%
Cc1cc(Nc2ccc(OCc3ccccc3)cc2)nc2cc(O)ccc12	-18.86%
O=c1cc(NC2CCN(CCCc3ccccc3)CC2)c2cc(Cl)ccc2o1	-2.261%
Cc1ccc(N2C(=O)C3C(C2=O)C2(c4ccccc4)C(=O)C3(c3ccccc3)C(c3ccccc3)=C2c2ccccc2)cc1 (centres undefined)	-46.86%
O=c1nc(C=Cc2ccc(Cl)cc2)oc2ccccc12	84.37%
COc1ccc(C(=O)C(CCC(CNC(C)(C)C)C(=O)c2ccc(OC)cc2)CNC(C)(C)C)cc1 (centres undefined)	-20.25%
Cc1ccc(Nc2nc(NCCO)c3ccccc3n2)cc1C	34.33%
CCCCCn1c(=N)n(CC(O)COc2cccc(C)c2)c2ccccc21.Cl (centres undefined)	-6.708%
CCC1(C)CC(CCNCc2ccccc2O)(c2ccc(C)cc2)CCO1 (centres undefined)	-2.346%
O=C(Nc1ccc(C23CC4CC(CC(c5ccccc5)(C4)C2)C3)cc1)c1cccs1	-2.299%
CN1C=C(c2ccc3ccccc3n2)C(c2c[nH]c3ccccc23)c2ccccc21 (centres undefined)	-24.69%
CC1CN(C(=O)c2sc3ccccc3c2Cl)CC(C)O1 (centres undefined)	27%
COc1ccccc1NC1=C(N2CCCCC2)C(=O)c2ccccc2C1=O	-35.82%

SMILES	Inhibition
c1ccc(-c2ccc(-c3nc4ccccc4[nH]3)cc2)cc1	27.1%
CCC(c1ccccc1)c1nn2c(-c3cccs3)nnc2s1 (centres undefined)	-11.07%
O=C(Nc1ccc(CN2CCOCC2)cc1)c1ccc(-c2ccc(Br)cc2)o1	0.1242%
Clc1ccc2c(N3CCCC3)ccnc2c1	-28.37%
Cc1cc(Nc2ccc3ccccc3c2)n2ncnc2n1	-10.13%
Oc1ccc(-c2nc(-c3ccc4oc5ccc(-c6[nH]c(-c7ccc(O)cc7)nc6-c6ccccc6)cc5c4c3)c(-c3ccccc3)[nH]2)cc1	-17.83%
CCN1CCN(Cc2ccc(NC(=O)c3cc4ccc5cccnc5c4[nH]3)cc2)CC1	-49.16%
CCOC(=O)c1c(NC(=O)c2ccccc2)sc2c(O)c(CN(CC)CC)ccc12	50.63%
COc1cc(-c2nc(-c3ccc(Sc4ccccc4)cc3)c(-c3ccccc3)[nH]2)cc(OC)c1O	-39.67%
CN(C)CCNc1cc(-c2ccccc2)nc2ccccc12	-2.54%
O=c1c2c([nH]c3ccccc13)CCCC2	14.89%
COc1ccccc1N1CCN(C(CNS(=O)(=O)c2ccc(Cl)cc2)c2cccnc2)CC1 (centres undefined)	38.78%
COc1ccc(-c2nonc2NC(=O)c2cccc(Cl)c2)cc1OC	23.52%
Nc1ccc(-c2nc3cc(Cc4ccc5[nH]c(-c6ccc(N)cc6)nc5c4)ccc3[nH]2)cc1	-51.86%
CCOc1cc(Cl)c(C(C)NC(=O)c2cccc(OC)c2)cc1OCC (centres undefined)	-11.62%
Cc1ccc(Nc2nc(-c3ccccn3)cs2)cc1	-19.75%
OC1=C2C(=Nc3ccccc3SC2c2ccccc2)c2ccccc21 (centres undefined)	-46.02%
CCC(=O)Nc1nnc(Cc2ccc(OC)c(OC)c2)s1	5.406%
Nc1ccn([C@@H]2O[C@H](CO)[C@@H](O)[C@H]2O)c(=O)n1 [CYTIDINE]	73.84%
CC(C)(C)c1ccc2c(c1)CN(Cc1ccc(Cl)cc1)CO2	-0.2226%
Cc1ccc(C(=O)c2oc3ccc4c(C)cc(=O)oc4c3c2C)cc1	28.07%
Br.CCn1c2c(c(=N)c3c1CCC3)CCCC2	9.729%
COc1ccc2nc(N)nc(C)c2c1	15.73%
CC(C)=CCN1CCC(C(=O)Nc2ccc(-c3nc4ccccc4[nH]3)cc2)CC1	-41.53%
CCOc1cccc2sc(N(Cc3cccnc3)C(=O)C3CCCCC3)nc12	-38.34%
CNCCCNc1ccnc2cc(Cl)ccc12	-4.729%

SMILES	Inhibition
COc1ccc(C2C(C(=O)Nc3cccc(OC)c3)c3ccccc3C(=O)N2C2CCCCC2)cc1 (centres undefined)	-43.91%
CCOc1c(Cl)cc(CNCC(O)c2ccccc2)cc1OC (centres undefined)	-11.22%
COc1cccc(C(=O)Nc2ccc(-c3nc4ccccc4[nH]3)cc2)c1	-26.13%
COC(=O)c1ccc(Cl)c2c1C1C=CCC1C(c1cccc3ccccc13)N2 (centres undefined)	-26.02%
C=CCc1c(C)nc2ccccc2c1O	-10.8%
COc1ccc(C(=O)Nc2ccc3nc(N4CCCCC4)cc(C)c3c2)cc1OC	6.852%
CCOc1cc(Cl)c(C(C)NC(=O)c2ccccc2)cc1OCC (centres undefined)	5.189%
N=c1c2ccccc2nnn1-c1cccc(C(F)(F)F)c1	6.889%
COc1cc(SC)ccc1C(=O)N1CCCC(C)C1 (centres undefined)	-12.18%
CCOC(=O)c1c(C)n(-c2ccc(Cl)cc2)c2ccc(OC(=O)C=Cc3ccccc3)cc12	-77.36%
c1ccc2c(NCCc3c[nH]c4ccccc34)c3ccccc3nc2c1	19.05%
CCOC(=O)c1cnc2c(C)cccc2c1Nc1ccc(C(C)=O)cc1	-10.99%
CCOc1ccccc1CN1CCc2nc3cc(C(C)(C)C)nn3c(O)c2C1	-3.69%
CCOc1ccc2nc(C)cc(Nc3ccc(N(C)C)cc3)c2c1.Cl	-13.24%
COc1cccc(Nc2nc(NCCO)c3ccccc3n2)c1.Cl	65.39%
CCN1CCN(c2cc(C)c3cc(NC(=O)c4ccc(OC)c(OC)c4)ccc3n2)CC1	-21.17%
COCCn1c(C)nc2ccccc2c1=O	-17.93%
O=C(Nc1cccc(C(F)(F)F)c1)c1cc(Cl)ccc1O	41.48%
CCc1ccc(Nc2cc(C)nc3nc(C)nn23)cc1	-3.889%
OC(CNC1CCCC1)Cn1c2ccccc2c2ccccc21 (centres undefined)	-40.56%
CCCOCc1cc(CN2CCN(c3cccc(Cl)c3)CC2)c(O)c2ncccc12	58.2%
CC1CC2=C(CC1CNCCCN(C)C)C(C)(C)CCC2 (centres undefined)	42.26%
N=c1n(CCN2CCCCC2)c2ccccc2n1CC(=O)c1ccc(Cl)c(Cl)c1	-71.18%
CN1CCN(c2c3c(c(C#N)c4nc5ccccc5n24)CCC3)CC1	-1.609%
CCC(O)c1ccc(Br)cc1NC(=O)c1cccc(Cl)c1 (centres undefined)	15.79%
Cc1cccc(Nc2nc(N)c3ccccc3n2)c1.Cl	39.08%
